Test results reported in the supplement of paper PMC10307832.

How the values were obtained:
Assay in all cases: relative viability (nuclei count vs DMSO), 5 days (fraction); higher = more cells survive
[1] = compound: CC[C@@H](C)CNCC(=O)N1CCC2=C([C@@H]1COC3=CC=CC(=C3)C)C=CS2 [RU-SKI 43] + CS(=O)(=O)N1CCN(Cc2cc3nc(-c4cccc5[nH]ncc45)nc(N4CCOCC4)c3s2)CC1 [Pictilisib] (partner 1 µM)
In short: (§1)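 Lung cancer cell lines were pin-tool dosed in 1536-well plates on the day after seeding, with either a lone drug or a fixed anchor-drug dose plus five library-drug doses (not always all listed) in √10 steps. Nuclei were counted on 4× images after 5 days. Relative viability is the ratio of treated-well to vehicle-well nuclei counts, with each value a median of duplicate plates.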

[2] = compound: Cn1cc(-c2cnc3ccc4ccc(CS(=O)(=O)NCc5ccccn5)cc4c(=O)c3c2)cn1 [MK-8033] + N=C(N)NC(=N)NCCc1ccccc1 [Phenformin] (partner 250 µM)
In short: as §1

[3] = compound: CCc1c2c(nc3ccc(OC(=O)N4CCC(N5CCCCC5)CC4)cc13)-c1cc3c(c(=O)n1C2)COC(=O)[C@]3(O)CC [Irinotecan] + Cc1nc(NC(=O)N2CCC[C@H]2C(N)=O)sc1-c1ccnc(C(C)(C)C(F)(F)F)c1 [Alpelisib] (partner 2 µM)
In short: as §1

[4] = compound: CC[C@@H](C)CNCC(=O)N1CCC2=C([C@@H]1COC3=CC=CC(=C3)C)C=CS2 [RU-SKI 43] + CC(=O)Nc1cccc(-n2c(=O)n(C3CC3)c(=O)c3c(Nc4ccc(I)cc4F)n(C)c(=O)c(C)c32)c1 [Trametinib] (partner 0.02 µM)
In short: as §1

Cell Line | relative viability ([1]; first compound 0.1 µM) | relative viability ([1]; first compound 0.3162 µM) | relative viability ([1]; first compound 1 µM) | relative viability ([1]; first compound 3.162 µM) | relative viability ([1]; first compound 10 µM) | relative viability ([2]; first compound 0.02 µM) | relative viability ([2]; first compound 0.06325 µM) | relative viability ([2]; first compound 0.2 µM) | relative viability ([2]; first compound 0.6325 µM) | relative viability ([2]; first compound 2 µM) | relative viability ([3]; first compound 0.6325 µM) | relative viability ([3]; first compound 2 µM) | relative viability ([3]; first compound 6.325 µM) | relative viability ([3]; first compound 20 µM) | relative viability ([4]; first compound 0.1 µM) | relative viability ([4]; first compound 0.3162 µM) | relative viability ([4]; first compound 1 µM) | relative viability ([4]; first compound 3.162 µM) | relative viability ([4]; first compound 10 µM)
HCC-15 | 0.886 | 0.887 | 0.872 | 0.721 | 0.679 | 0.511 | 0.467 | 0.421 | 0.45 | 0.482 | 0.478 | 0.239 | 0.144 | 0.173 | 0.41 | 0.373 | 0.37 | 0.384 | 0.336
HCC-44 | 0.668 | 0.504 | 0.77 | 0.675 | 0.566 | 0.209 | 0.181 | 0.22 | 0.252 | 0.208 | 0.669 | 0.347 | 0.28 | 0.313 | 1.11 | 1.06 | 1.17 | 1.15 | 1.07
HCC-78 | 0.24 | 0.232 | 0.278 | 0.176 | 0.191 | 0.806 | – | 0.668 | 0.728 | 0.799 | 0.38 | 0.248 | 0.195 | 0.211 | 0.678 | 0.916 | 0.641 | 0.809 | 0.724
HCC-366 | 0.134 | 0.196 | 0.175 | 0.221 | 0.137 | 0.725 | 0.644 | 0.601 | 0.618 | 0.607 | 0.404 | 0.187 | 0.0425 | 0.0448 | 0.34 | 0.253 | 0.311 | 0.333 | 0.212
HCC-827 | 0.994 | 0.97 | 1.19 | 1.05 | 0.94 | 0.407 | – | 0.397 | 0.424 | 0.393 | 0.522 | 0.252 | 0.203 | 0.233 | 0.501 | 0.52 | 0.545 | 0.574 | 0.46
HOP-62 | 0.767 | 0.69 | 0.834 | 0.769 | 0.611 | 0.674 | 0.646 | 0.631 | 0.703 | 0.639 | 0.244 | 0.171 | 0.158 | 0.129 | 0.358 | 0.428 | 0.374 | 0.405 | 0.314
IA-LM | 0.353 | 0.321 | 0.397 | 0.385 | 0.404 | – | – | – | – | – | 0.614 | 0.408 | 0.189 | 0.0631 | – | – | – | – | –
LC-2-ad | 0.404 | 0.601 | 0.562 | 0.438 | 0.358 | 0.605 | 0.515 | – | 0.592 | 0.589 | 0.634 | 0.283 | 0.155 | 0.17 | 0.951 | 1.08 | 0.985 | 0.928 | 0.847
LCLC-97TM1 | 0.191 | – | 0.213 | 0.162 | 0.188 | 0.393 | 0.433 | 0.456 | 0.454 | 0.439 | 0.105 | 0.165 | 0.154 | 0.224 | 0.193 | 0.246 | 0.256 | 0.187 | 0.148
LCLC-103H | 0.663 | 0.629 | 0.712 | 0.624 | 0.691 | 0.378 | 0.334 | 0.314 | 0.355 | 0.396 | 0.812 | 0.345 | 0.33 | 0.368 | 0.689 | 0.755 | 0.726 | 0.677 | 0.724
NCI-H522 | – | – | – | – | – | 0.645 | 0.7 | 0.707 | 0.54 | 0.699 | – | – | – | – | 0.862 | 0.723 | 0.675 | 0.883 | 0.715
NCI-H1299 | 0.823 | 1.05 | 0.709 | 0.789 | 0.686 | – | – | – | – | – | 0.919 | 0.918 | 0.801 | 0.36 | – | – | – | – | –
NCI-H1563 | 0.682 | 0.653 | 0.689 | 0.701 | 0.646 | 0.711 | 0.669 | 0.602 | 0.679 | 0.642 | 0.86 | 0.912 | 0.875 | 0.654 | – | – | – | – | –
NCI-H1623 | – | – | – | – | – | 0.578 | 0.538 | 0.618 | 0.507 | 0.619 | – | – | – | – | – | – | – | – | –
NCI-H1648 | – | – | – | – | – | – | – | – | – | – | – | – | – | – | 0.43 | 0.459 | 0.715 | 0.568 | 0.378
NCI-H1650 | 0.561 | 0.579 | 0.616 | 0.739 | 0.382 | 0.412 | 0.285 | 0.38 | 0.441 | 0.399 | – | – | – | – | 0.556 | 0.703 | 0.533 | 0.712 | 0.55
NCI-H1703 | 0.253 | 0.209 | 0.263 | 0.273 | 0.219 | – | – | – | – | – | 0.305 | 0.482 | 0.385 | 0.136 | – | – | – | – | –
NCI-H2342 | – | – | – | – | – | 0.55 | 0.529 | 0.585 | 0.594 | 0.591 | – | – | – | – | 0.764 | – | 0.842 | 0.896 | 0.778
SW 900 | – | – | – | – | – | 0.466 | 0.649 | 0.603 | 0.591 | 0.499 | – | – | – | – | 0.818 | 0.76 | 1.03 | 1.02 | 0.594
